Paper PMC6891286, “Towards the Development of an In vivo Chemical Probe for Cyclin G Associated Kinase (GAK)” (Molecules, 2019)

Assays:
Assay in all cases: KINOMEscan
Type in all cases: binding
Conditions in all cases: 35 at 1 µM; read-out: % inhibition
ABL1-nonphosphorylated = molecular target: T1, ABL1-nonphosphorylated (Homo sapiens, UniProt P00519)
T1 construct: purchased Eurofins DiscoverX (KINOMEscan)
Procedure: (§1) KinomeScan Assay on 35 was performed as previously described at EuroFins DiscoverX (Fremont, CA, USA).

ALK(L1196M) = molecular target: T2, ALK(L1196M) (Homo sapiens, UniProt Q9UM73, L1196M)
T2 construct: purchased Eurofins DiscoverX (KINOMEscan)
Procedure: as §1

AMPK-alpha1 = molecular target: T3, AMPK-alpha1 (Homo sapiens, UniProt Q13131)
T3 construct: purchased Eurofins DiscoverX (KINOMEscan)
T3 sequence (Q13131 whole entry): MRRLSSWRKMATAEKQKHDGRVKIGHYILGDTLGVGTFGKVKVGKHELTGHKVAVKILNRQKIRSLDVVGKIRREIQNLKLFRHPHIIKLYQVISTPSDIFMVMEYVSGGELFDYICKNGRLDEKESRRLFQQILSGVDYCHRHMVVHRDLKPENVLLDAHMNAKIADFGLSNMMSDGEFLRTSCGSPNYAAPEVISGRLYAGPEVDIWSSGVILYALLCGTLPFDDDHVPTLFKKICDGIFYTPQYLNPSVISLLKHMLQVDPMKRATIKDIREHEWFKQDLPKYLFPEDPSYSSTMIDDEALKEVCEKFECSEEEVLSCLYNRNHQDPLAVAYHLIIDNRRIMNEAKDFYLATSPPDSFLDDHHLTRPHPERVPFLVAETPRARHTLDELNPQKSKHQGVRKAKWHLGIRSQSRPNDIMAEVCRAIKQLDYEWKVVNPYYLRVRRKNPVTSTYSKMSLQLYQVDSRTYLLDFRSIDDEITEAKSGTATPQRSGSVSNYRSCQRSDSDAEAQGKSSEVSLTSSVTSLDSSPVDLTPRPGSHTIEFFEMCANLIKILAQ
Procedure: as §1

AURKA = molecular target: T4, AURKA (Homo sapiens, UniProt O14965)
T4 construct: purchased Eurofins DiscoverX (KINOMEscan)
Procedure: as §1

AURKC = molecular target: T5, AURKC (Homo sapiens, UniProt Q9UQB9)
T5 construct: purchased Eurofins DiscoverX (KINOMEscan)
Procedure: as §1

BLK = molecular target: T6, BLK (Homo sapiens, UniProt P51451)
T6 construct: purchased Eurofins DiscoverX (KINOMEscan)
Procedure: as §1

BMPR1B = molecular target: T7, BMPR1B (Homo sapiens, UniProt O00238)
T7 construct: purchased Eurofins DiscoverX (KINOMEscan)
Procedure: as §1

CLK2 = molecular target: T8, CLK2 (Homo sapiens, UniProt P49760)
T8 construct: purchased Eurofins DiscoverX (KINOMEscan)
Procedure: as §1

EGFR(G719C) = molecular target: T9, EGFR(G719C) (Homo sapiens, UniProt P00533, G719C)
T9 construct: purchased Eurofins DiscoverX (KINOMEscan)
Procedure: as §1

EPHA4 = molecular target: T10, EPHA4 (Homo sapiens, UniProt P54764)
T10 construct: purchased Eurofins DiscoverX (KINOMEscan)
Procedure: as §1

EPHA5 = molecular target: T11, EPHA5 (Homo sapiens, UniProt P54756)
T11 construct: purchased Eurofins DiscoverX (KINOMEscan)
Procedure: as §1

ERBB3 = molecular target: T12, ERBB3 (Homo sapiens, UniProt P21860)
T12 construct: purchased Eurofins DiscoverX (KINOMEscan)
Procedure: as §1

FGFR3(G697C) = molecular target: T13, FGFR3(G697C) (Homo sapiens, UniProt P22607, G697C)
T13 construct: purchased Eurofins DiscoverX (KINOMEscan)
Procedure: as §1

FLT3(D835H) = molecular target: T14, FLT3(D835H) (Homo sapiens, UniProt P36888, D835H)
T14 construct: purchased Eurofins DiscoverX (KINOMEscan)
Procedure: as §1

FLT3(D835V) = molecular target: T15, FLT3(D835V) (Homo sapiens, UniProt P36888, D835V)
T15 construct: purchased Eurofins DiscoverX (KINOMEscan)
Procedure: as §1

FLT3(D835Y) = molecular target: T16, FLT3(D835Y) (Homo sapiens, UniProt P36888, D835Y)
T16 construct: purchased Eurofins DiscoverX (KINOMEscan)
Procedure: as §1

GRK1 = molecular target: T17, GRK1 (Homo sapiens, UniProt Q15835)
T17 construct: purchased Eurofins DiscoverX (KINOMEscan)
Procedure: as §1

IKK-beta = molecular target: T18, IKK-beta (Homo sapiens, UniProt O14920)
T18 construct: purchased Eurofins DiscoverX (KINOMEscan)
Procedure: as §1

IRAK1 = molecular target: T19, IRAK1 (Homo sapiens, UniProt P51617)
T19 construct: purchased Eurofins DiscoverX (KINOMEscan)
Procedure: as §1

IRAK3 = molecular target: T20, IRAK3 (Homo sapiens, UniProt Q9Y616)
T20 construct: purchased Eurofins DiscoverX (KINOMEscan)
T20 sequence (Q9Y616 whole entry): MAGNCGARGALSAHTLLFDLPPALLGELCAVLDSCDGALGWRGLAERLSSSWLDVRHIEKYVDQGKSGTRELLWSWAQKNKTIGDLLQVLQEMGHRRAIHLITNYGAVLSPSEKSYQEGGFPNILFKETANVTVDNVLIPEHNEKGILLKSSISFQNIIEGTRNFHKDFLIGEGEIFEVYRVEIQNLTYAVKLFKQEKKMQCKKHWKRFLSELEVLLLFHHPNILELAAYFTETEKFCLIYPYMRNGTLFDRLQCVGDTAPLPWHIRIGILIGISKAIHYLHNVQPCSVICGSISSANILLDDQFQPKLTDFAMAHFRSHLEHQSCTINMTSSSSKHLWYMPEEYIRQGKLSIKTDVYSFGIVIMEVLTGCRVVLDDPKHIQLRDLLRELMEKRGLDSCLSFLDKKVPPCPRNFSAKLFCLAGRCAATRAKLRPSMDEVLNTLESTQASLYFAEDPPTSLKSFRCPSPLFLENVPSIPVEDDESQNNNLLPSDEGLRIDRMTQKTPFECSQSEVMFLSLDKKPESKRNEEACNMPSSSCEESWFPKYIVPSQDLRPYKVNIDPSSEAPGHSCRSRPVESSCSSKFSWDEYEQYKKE
Procedure: as §1

KIT(V559D) = molecular target: T21, KIT(V559D) (Homo sapiens, UniProt P10721, V559D)
T21 construct: purchased Eurofins DiscoverX (KINOMEscan)
Procedure: as §1

KIT(V559D,V654A) = molecular target: T22, KIT(V559D,V654A) (Homo sapiens, UniProt P10721, V559D/V654A)
T22 construct: purchased Eurofins DiscoverX (KINOMEscan)
T22 sequence (P10721 26-976 V559D/V654A): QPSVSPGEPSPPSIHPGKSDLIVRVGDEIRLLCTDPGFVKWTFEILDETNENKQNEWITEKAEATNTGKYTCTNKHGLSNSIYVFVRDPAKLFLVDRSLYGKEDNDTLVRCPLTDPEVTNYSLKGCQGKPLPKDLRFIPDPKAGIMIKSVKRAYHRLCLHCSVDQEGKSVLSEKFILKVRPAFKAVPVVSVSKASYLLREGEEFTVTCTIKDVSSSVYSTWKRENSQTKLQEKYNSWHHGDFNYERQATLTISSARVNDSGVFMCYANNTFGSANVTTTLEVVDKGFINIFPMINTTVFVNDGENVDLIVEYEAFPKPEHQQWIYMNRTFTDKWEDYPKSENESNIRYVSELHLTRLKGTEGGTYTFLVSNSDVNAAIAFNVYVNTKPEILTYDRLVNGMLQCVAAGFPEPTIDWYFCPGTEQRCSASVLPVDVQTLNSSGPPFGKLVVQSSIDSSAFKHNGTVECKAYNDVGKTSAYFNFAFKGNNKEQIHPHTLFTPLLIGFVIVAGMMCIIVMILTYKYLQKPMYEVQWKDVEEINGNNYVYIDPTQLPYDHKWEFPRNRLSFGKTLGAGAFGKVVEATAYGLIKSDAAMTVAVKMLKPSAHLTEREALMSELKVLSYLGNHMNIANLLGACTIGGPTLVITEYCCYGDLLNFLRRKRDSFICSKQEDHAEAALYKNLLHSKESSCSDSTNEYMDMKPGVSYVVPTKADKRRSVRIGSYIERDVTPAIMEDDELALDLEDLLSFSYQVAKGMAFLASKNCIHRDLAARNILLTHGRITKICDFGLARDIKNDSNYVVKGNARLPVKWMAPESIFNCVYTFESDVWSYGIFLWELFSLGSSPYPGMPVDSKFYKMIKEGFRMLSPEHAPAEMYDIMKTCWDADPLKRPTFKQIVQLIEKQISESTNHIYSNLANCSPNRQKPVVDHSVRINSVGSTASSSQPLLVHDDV
Procedure: as §1

LYN = molecular target: T23, LYN (Homo sapiens, UniProt P07948)
T23 construct: purchased Eurofins DiscoverX (KINOMEscan)
Procedure: as §1

MKK7 = molecular target: T24, MKK7 (Homo sapiens, UniProt O14733)
T24 construct: purchased Eurofins DiscoverX (KINOMEscan)
Procedure: as §1

NEK3 = molecular target: T25, NEK3 (Homo sapiens, UniProt P51956)
T25 construct: purchased Eurofins DiscoverX (KINOMEscan)
Procedure: as §1

PHKG2 = molecular target: T26, PHKG2 (Homo sapiens, UniProt P15735)
T26 construct: purchased Eurofins DiscoverX (KINOMEscan)
Procedure: as §1

PIK3CA(C420R) = molecular target: T27, PIK3CA(C420R) (Homo sapiens, UniProt P42336, C420R)
T27 construct: purchased Eurofins DiscoverX (KINOMEscan)
Procedure: as §1

PIK4CB = molecular target: T28, PIK4CB (Homo sapiens, UniProt Q9UBF8)
T28 construct: purchased Eurofins DiscoverX (KINOMEscan)
Procedure: as §1

PKAC-alpha = molecular target: T29, PKAC-alpha (Homo sapiens, UniProt P17612)
T29 construct: purchased Eurofins DiscoverX (KINOMEscan)
Procedure: as §1

PLK3 = molecular target: T30, PLK3 (Homo sapiens, UniProt Q9H4B4)
T30 construct: purchased Eurofins DiscoverX (KINOMEscan)
Procedure: as §1

PRKCQ = molecular target: T31, PRKCQ (Homo sapiens, UniProt Q04759)
T31 construct: purchased Eurofins DiscoverX (KINOMEscan)
Procedure: as §1

PRP4 = molecular target: T32, PRP4 (Homo sapiens, UniProt Q13523)
T32 construct: purchased Eurofins DiscoverX (KINOMEscan)
T32 sequence (Q13523 whole entry): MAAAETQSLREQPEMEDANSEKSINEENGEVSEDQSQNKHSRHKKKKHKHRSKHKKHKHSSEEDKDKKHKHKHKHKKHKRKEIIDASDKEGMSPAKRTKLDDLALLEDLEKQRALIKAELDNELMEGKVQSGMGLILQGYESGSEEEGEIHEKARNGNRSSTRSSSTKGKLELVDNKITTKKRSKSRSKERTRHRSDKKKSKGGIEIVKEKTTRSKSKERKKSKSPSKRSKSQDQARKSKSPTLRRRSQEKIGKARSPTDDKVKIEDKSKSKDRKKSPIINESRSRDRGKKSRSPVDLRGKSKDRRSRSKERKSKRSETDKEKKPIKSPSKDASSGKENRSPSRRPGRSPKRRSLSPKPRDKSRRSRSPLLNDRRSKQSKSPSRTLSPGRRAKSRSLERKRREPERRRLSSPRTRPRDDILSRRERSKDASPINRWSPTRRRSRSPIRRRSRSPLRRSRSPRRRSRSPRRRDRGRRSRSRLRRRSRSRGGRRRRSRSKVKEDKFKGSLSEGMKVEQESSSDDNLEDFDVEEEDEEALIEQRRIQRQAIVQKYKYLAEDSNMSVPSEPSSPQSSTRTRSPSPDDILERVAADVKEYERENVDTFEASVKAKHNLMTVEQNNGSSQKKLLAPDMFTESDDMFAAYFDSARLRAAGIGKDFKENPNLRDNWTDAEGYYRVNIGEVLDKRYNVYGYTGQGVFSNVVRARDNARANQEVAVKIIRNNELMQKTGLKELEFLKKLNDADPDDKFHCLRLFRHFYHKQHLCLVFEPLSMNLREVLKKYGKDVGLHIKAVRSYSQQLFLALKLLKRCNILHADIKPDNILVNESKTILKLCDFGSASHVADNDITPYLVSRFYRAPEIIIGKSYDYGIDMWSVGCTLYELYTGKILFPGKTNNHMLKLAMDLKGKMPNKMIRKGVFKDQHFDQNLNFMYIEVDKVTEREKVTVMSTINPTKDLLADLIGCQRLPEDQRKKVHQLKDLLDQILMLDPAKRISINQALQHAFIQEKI
Procedure: as §1

ROS1 = molecular target: T33, ROS1 (Homo sapiens, UniProt P08922)
T33 construct: purchased Eurofins DiscoverX (KINOMEscan)
Procedure: as §1

[1] = molecular target: T34, RPS6KA4(Kin.Dom.2-C-terminal) (Homo sapiens, UniProt O75676)
T34 construct: RPS6KA4(Kin.Dom.2-C-terminal); purchased Eurofins DiscoverX (KINOMEscan)
Procedure: as §1

[2] = molecular target: T35, RSK1(Kin.Dom.1-N-terminal) (Homo sapiens, UniProt Q15418)
T35 construct: RSK1(Kin.Dom.1-N-terminal); purchased Eurofins DiscoverX (KINOMEscan)
Procedure: as §1

SRC = molecular target: T36, SRC (Homo sapiens, UniProt P12931)
T36 construct: purchased Eurofins DiscoverX (KINOMEscan)
Procedure: as §1

TLK2 = molecular target: T37, TLK2 (Homo sapiens, UniProt Q86UE8)
T37 construct: purchased Eurofins DiscoverX (KINOMEscan)
Procedure: as §1

TNK2 = molecular target: T38, TNK2 (Homo sapiens, UniProt Q07912)
T38 construct: purchased Eurofins DiscoverX (KINOMEscan)
Procedure: as §1

TYRO3 = molecular target: T39, TYRO3 (Homo sapiens, UniProt Q06418)
T39 construct: purchased Eurofins DiscoverX (KINOMEscan)
T39 sequence (Q06418 41-890): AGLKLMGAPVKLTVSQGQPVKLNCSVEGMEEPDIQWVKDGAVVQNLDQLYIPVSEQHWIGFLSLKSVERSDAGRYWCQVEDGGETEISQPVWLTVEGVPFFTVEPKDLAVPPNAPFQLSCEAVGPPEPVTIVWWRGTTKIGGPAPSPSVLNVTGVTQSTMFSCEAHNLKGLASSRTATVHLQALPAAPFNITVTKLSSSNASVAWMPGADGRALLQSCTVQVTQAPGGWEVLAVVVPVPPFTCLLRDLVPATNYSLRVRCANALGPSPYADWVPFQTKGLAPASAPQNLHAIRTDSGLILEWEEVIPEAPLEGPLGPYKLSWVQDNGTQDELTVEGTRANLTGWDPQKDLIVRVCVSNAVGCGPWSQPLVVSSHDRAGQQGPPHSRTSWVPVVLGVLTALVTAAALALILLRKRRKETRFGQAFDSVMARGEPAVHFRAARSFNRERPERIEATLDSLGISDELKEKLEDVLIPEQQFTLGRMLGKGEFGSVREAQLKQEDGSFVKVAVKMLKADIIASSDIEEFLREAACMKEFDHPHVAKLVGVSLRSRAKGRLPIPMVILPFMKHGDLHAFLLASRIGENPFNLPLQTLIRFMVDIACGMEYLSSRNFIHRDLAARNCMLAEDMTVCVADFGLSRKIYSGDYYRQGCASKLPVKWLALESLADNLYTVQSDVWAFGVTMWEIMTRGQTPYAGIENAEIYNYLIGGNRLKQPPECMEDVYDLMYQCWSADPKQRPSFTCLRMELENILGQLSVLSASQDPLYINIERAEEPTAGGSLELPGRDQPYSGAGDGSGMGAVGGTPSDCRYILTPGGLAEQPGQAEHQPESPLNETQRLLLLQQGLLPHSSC
Procedure: as §1

YANK1 = molecular target: T40, YANK1 (Homo sapiens, UniProt Q8WU08)
T40 construct: purchased EuroFins DiscoverX (Fremont, CA, USA)
Procedure: as §1

YANK3 = molecular target: T41, YANK3 (Homo sapiens, UniProt Q86UX6)
T41 construct: purchased EuroFins DiscoverX (Fremont, CA, USA)
Procedure: as §1

T1 sequence (P00519 whole entry): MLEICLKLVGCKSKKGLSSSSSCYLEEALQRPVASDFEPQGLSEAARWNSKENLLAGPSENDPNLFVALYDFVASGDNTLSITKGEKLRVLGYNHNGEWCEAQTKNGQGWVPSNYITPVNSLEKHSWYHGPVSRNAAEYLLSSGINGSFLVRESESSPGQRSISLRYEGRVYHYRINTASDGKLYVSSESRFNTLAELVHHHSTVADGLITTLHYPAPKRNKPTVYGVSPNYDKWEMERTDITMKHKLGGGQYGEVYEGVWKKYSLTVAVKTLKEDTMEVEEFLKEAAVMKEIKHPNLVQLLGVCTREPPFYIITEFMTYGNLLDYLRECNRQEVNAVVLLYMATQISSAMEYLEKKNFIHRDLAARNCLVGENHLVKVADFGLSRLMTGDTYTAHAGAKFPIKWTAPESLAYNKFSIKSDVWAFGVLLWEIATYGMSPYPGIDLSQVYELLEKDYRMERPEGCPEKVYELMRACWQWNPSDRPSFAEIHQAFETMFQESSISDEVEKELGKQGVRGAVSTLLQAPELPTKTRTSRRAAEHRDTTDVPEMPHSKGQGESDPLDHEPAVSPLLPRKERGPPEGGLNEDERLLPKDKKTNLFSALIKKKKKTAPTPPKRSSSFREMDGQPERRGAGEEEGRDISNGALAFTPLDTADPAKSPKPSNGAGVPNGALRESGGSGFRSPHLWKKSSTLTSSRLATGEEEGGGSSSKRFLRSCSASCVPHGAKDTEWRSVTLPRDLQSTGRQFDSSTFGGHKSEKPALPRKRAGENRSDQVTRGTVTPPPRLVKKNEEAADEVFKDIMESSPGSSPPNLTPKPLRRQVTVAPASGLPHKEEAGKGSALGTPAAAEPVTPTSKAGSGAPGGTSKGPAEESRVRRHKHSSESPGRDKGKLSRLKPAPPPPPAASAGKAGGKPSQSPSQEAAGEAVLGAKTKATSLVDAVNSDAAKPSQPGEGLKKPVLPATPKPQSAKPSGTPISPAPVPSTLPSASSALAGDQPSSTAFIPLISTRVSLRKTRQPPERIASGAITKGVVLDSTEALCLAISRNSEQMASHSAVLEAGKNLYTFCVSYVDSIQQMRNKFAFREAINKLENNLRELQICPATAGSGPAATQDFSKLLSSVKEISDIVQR

## Brc1ccc2nccc(Nc3ccc4cn[nH]c4c3)c2c1 [Compound 35, 6-Bromo-N-(1H-indazol-6-yl)quinolin-4-amine]
ABL1-nonphosphorylated
  activity at 1 µM: 88%
ALK(L1196M)
  activity at 1 µM: 86%
AMPK-alpha1
  activity at 1 µM: 100%
AURKA
  activity at 1 µM: 100%
AURKC
  activity at 1 µM: 100%
BLK
  activity at 1 µM: 96%
BMPR1B
  activity at 1 µM: 91%
CLK2
  activity at 1 µM: 86%
EGFR(G719C)
  activity at 1 µM: 83%
EPHA4
  activity at 1 µM: 100%
EPHA5
  activity at 1 µM: 100%
ERBB3
  activity at 1 µM: 100%
FGFR3(G697C)
  activity at 1 µM: 100%
FLT3(D835H)
  activity at 1 µM: 94%
FLT3(D835V)
  activity at 1 µM: 100%
FLT3(D835Y)
  activity at 1 µM: 100%
GRK1
  activity at 1 µM: 68%
IKK-beta
  activity at 1 µM: 100%
IRAK1
  activity at 1 µM: 100%
IRAK3
  activity at 1 µM: 100%
KIT(V559D)
  activity at 1 µM: 100%
KIT(V559D,V654A)
  activity at 1 µM: 100%
LYN
  activity at 1 µM: 100%
MKK7
  activity at 1 µM: 100%
NEK3
  activity at 1 µM: 89%
PHKG2
  activity at 1 µM: 95%
PIK3CA(C420R)
  activity at 1 µM: 100%
PIK4CB
  activity at 1 µM: 100%
PKAC-alpha
  activity at 1 µM: 98%
PLK3
  activity at 1 µM: 100%
PRKCQ
  activity at 1 µM: 88%
PRP4
  activity at 1 µM: 79%
ROS1
  activity at 1 µM: 94%
[1]
  activity at 1 µM: 100%
[2]
  activity at 1 µM: 100%
SRC
  activity at 1 µM: 97%
TLK2
  activity at 1 µM: 100%
TNK2
  activity at 1 µM: 95%
TYRO3
  activity at 1 µM: 99%
YANK1
  activity at 1 µM: 100%
YANK3
  activity at 1 µM: 100%
